Measurements published in patent US8293462B2, “Method of preserving early mammalian embryos by vitrification” (Central Institute for Experimental Animals, priority 2005, dated 2012).

Tested on: marmoset ES cells, cell line No. 40
Assay: Survival of ES cell clumps after thaw, cell line No. 40
Format: cell-based, common marmoset (Callithrix jacchus)
Conditions: FIG. 1
Excerpt: As marmoset ES cells, two cell lines, i.e., No. 40 and No. 20, which were established by the Central Institute for Experimental Animals (Japan), were employed (Sasaki E. et al., 2005, Establishment of Novel Embryonic Stem Cell Lines Derived from the Common Marmoset (Callithrix jacchus), Stem Cells. (in press)). The cell clumps separated via trypsin treatment were recovered with an egg-sampling pipette and used in the preservation experiment.
In the method of preservation by vitrification according to the present invention, […] PB1, 10% propylene glycol, 30% ethylene glycol, 20% Percoll®(t, and 0.3 M sucrose were used. In thaw, the SPB1 solution comprising PB1 and 0.3 M sucrose was used.
In preservation of the control embryos by vitrification (Fujioka T. et al., Int. J. Dev. Biol. 48: 1149-1154), a DAP213 solution comprising PB1, 2 mol of DMSO, 1 mol of acetamide, and 3 mol of propylene glycol was used. In slow freezing (Reubinoff B. E. et al., Human Reprod. Vol. 16, No. 10, 2187-2194), the SF solution comprising 10% DMSO in FCS was used.
Subsequently, the cell clumps were introduced into a preservation tube (Nunc 375353) with 5 μl of P10, followed by cooling at 0° C. for 1 minute. Thereafter, 95 μl of PEPeS, which had been cooled to 0° C., was introduced into the tube. […]

With CC(O)CO (centres unmarked) [propylene glycol] the “survival rate after thaw compared with control that had not been preserved” value (pretreatment solution PB1 + 5% propylene glycol, 4 days after initiation of culture) was “significantly lower” and the “survival rate after thaw compared with control that had not been preserved” value (pretreatment solution PB1 + 15% propylene glycol, 4 days of culture) was “did not differ from the control embryos”.
